Results as given in patent US20100247485A1, “FORMULATIONS AND DEVICES FOR […] TO […] MICR[…] ARTHOPODS” (MEVLABS, INC., priority 2007, published 2010).

System: Anopheles mosquitoe species
Test: Lethality of drug to Anopheles mosquitoes
Settings: 7 μg/ml (estimated ED 50 of Pyremethamine)

CCc1nc(N)nc(N)c1-c1ccc(Cl)cc1 [Pyremethamine]
lethality to mosquitoes at the estimated ED50: not lethal
